What was measured:
[1] = molecular target: T1, cytoplasmic domain of the human VEGF receptor (VEGFR-2) (Homo sapiens, UniProt P35968); assay: KDR Assay; format: biochemical; details: His-VEGFR-2; 3.6 μM ATP
T1 construct: The cytoplasmic domain of the human VEGF receptor (VEGFR-2) was expressed as a Histidine-tagged fusion protein; His (Histidine tag); made in house; host or cells: insect cells (baculovirus)
Method: Automated FLIPR (Fluorometric Imaging Plate Reader) technology was used to screen for inhibitors of VEGF induced increases in intracellular calcium levels in fluorescent dye loaded endothelial cells. HUVEC (human umbilical vein endothelial cells) (Clonetics) were seeded in 96-well fibronectin coated black-walled plates overnight at 37° C./5% CO2. Cells were loaded with calcium indicator Fluo-4 for 45 minutes at 37° C. Cells were washed 4 times (Original Cell Wash, Labsystems) to remove extracellular dye. Test compounds were reconstituted in 100% DMSO and added to the cells to give a final DMSO concentration of 0.1%. For screening, cells were pre-incubated with test agents for 30 minutes, at a single concentration (10 μM) or at concentrations ranging from 0.01 to 10.0 μM followed by VEGF stimulation (5 ng/mL). Changes in fluorescence at 516 nm were measured simultaneously in all 96 wells using a cooled CCD camera. Data were generated by determining max-min fluorescence levels for unstimulated, stimulated, and drug treated samples. IC50 values for test compounds were calculated from % inhibition of VEGF stimulated responses in the absence of inhibitor. Protocol for KDR Assay: KDR Assay: The cytoplasmic domain of the human VEGF receptor (VEGFR-2) was expressed as a Histidine-tagged fusion protein following infection of insect cells using an engineered baculovirus. His-VEGFR-2 was purified to homogeneity, as determined by SDS-PAGE, using nickel resin chromatography. Kinase assays were performed in 96 well microtiter plates that were coated overnight with 30 μg of poly-Glu-Tyr (4:1) in 10 mM Phosphate Buffered Saline (PBS), pH 7.2-7.4. The plates were incubated with 1% BSA and then washed four times with PBS prior to starting the reaction. Reactions were carried out in 120 μL reaction volumes containing 3.6 μM ATP in kinase buffer (50 mM Hepes buffer pH 7.4, 20 mM MgCl2, 0.1 mM MnCl2 and 0.2 mM Na3VO4). Test compounds were reconstituted in 100% DMSO and added to the reaction to give a final DMSO concentration of 5%. Reactions were initiated by the addition 0.5 ng of purified protein. Following a ten minute incubation at 25° C., the reactions were washed four times with PBS containing 0.05% Tween-20. 100 μl of a monoclonal anti-phosphotyrosine antibody-peroxidase conjugate was diluted 1:10000 in PBS-Tween-20 and added to the wells for 30 minutes. […] The reaction was terminated by the addition of 100 μl of 2.5N H2SO4 to each well and read using a microplate ELISA reader set at 492 nm. IC50 values for compound inhibition were calculated directly from graphs of optical density (arbitrary units) versus compound concentration following subtraction of blank values. […]

[2] = test system: VEGF induced increases in intracellular calcium levels in HUVEC (human umbilical vein endothelial cells); assay: VEGF Stimulated Ca++ Signal In Vitro (FLIPR); format: cell-based; details: VEGF 5 ng/mL; for IC50: 0.01 to 10.0 μM
Method: VEGF Stimulated Ca^++ Signal In Vitro
Automated FLIPR (Fluorometric Imaging Plate Reader) technology was used to screen for inhibitors of VEGF induced increases in intracellular calcium levels in fluorescent dye loaded endothelial cells. HUVEC (human umbilical vein endothelial cells) (Clonetics) were seeded in 96-well fibronectin coated black-walled plates overnight at 37° C./5% CO2. Cells were loaded with calcium indicator Fluo-4 for 45 minutes at 37° C. Cells were washed 4 times (Original Cell Wash, Labsystems) to remove extracellular dye. Test compounds were reconstituted in 100% DMSO and added to the cells to give a final DMSO concentration of 0.1%. For screening, cells were pre-incubated with test agents for 30 minutes, at a single concentration (10 μM) or at concentrations ranging from 0.01 to 10.0 μM followed by VEGF stimulation (5 ng/mL). Changes in fluorescence at 516 nm were measured simultaneously in all 96 wells using a cooled CCD camera. Data were generated by determining max-min fluorescence levels for unstimulated, stimulated, and drug treated samples. IC50 values for test compounds were calculated from % inhibition of VEGF stimulated responses in the absence of inhibitor. Protocol for KDR Assay: KDR Assay: The cytoplasmic domain of the human VEGF receptor (VEGFR-2) was expressed as a Histidine-tagged fusion protein following infection of insect cells using an engineered baculovirus. His-VEGFR-2 was purified to homogeneity, as determined by SDS-PAGE, using nickel resin chromatography. Kinase assays were performed in 96 well microtiter plates that were coated overnight with 30 μg of poly-Glu-Tyr (4:1) in 10 mM Phosphate Buffered Saline (PBS), pH 7.2-7.4. The plates were incubated with 1% BSA and then washed four times with PBS prior to starting the reaction. Reactions were carried out in 120 μL reaction volumes containing 3.6 μM ATP in kinase buffer (50 mM Hepes buffer pH 7.4, 20 mM MgCl2, 0.1 mM MnCl2 and 0.2 mM Na3VO4). Test compounds were reconstituted in 100% DMSO and added to the reaction to give a final DMSO concentration of 5%. Reactions were initiated by the addition 0.5 ng of purified protein. Following a ten minute incubation at 25° C., the reactions were washed four times with PBS containing 0.05% Tween-20. 100 μl of a monoclonal anti-phosphotyrosine antibody-peroxidase conjugate was diluted 1:10000 in PBS-Tween-20 and added to the wells for 30 minutes. Following four washes with PBS-Tween-20, 100 μl of O-phenylenediamine Dihydrochloride in Phosphate-citrate buffer, containing urea hydrogen peroxide, was added to the wells for 7 minutes as a colorimetric substrate for the peroxidase. The reaction was terminated by the addition of 100 μl of 2.5N H2SO4 to each well and read using a microplate ELISA reader set at 492 nm. IC50 values for compound inhibition were calculated directly from graphs of optical density (arbitrary units) versus compound concentration following subtraction of blank values. VEGF-induced Dermal Extravasation in Guinea Pig (Miles Assay). Male Hartley guinea pigs (300-600 g) were anesthetized with isofluorane, sheared, and given a single dose of drug or the respective vehicle. The guinea pigs were dosed orally unless indicated otherwise in Table 3. Ten minutes prior to the end of drug treatment, guinea pigs were anesthetized with isofluorane, and 0.5% Evans blue dye (EBD) in PBS (13-15 mg/kg dose of EBD) was injected intravenously. After 5 minutes, triplicate intradermal injections of 100 ng rhVEGF165 in 100 μl PBS and of 100 μl PBS alone were administered on the flank. After 20 minutes, each animal was euthanized with Pentosol, and the skin containing the intradermal injection sites was removed for image analysis.

[3] = test system: laser-induced choroidal neovascularization; assay: Laser-induced Choroidal Neovascularization (CNV) in Rat (CNV Assay); format: in vivo
Method: Laser-induced Choroidal Neovascularization (CNV) in Rat (CNV Assay). CNV was induced and quantified in this model as previously described (Edelman and Castro. Exp. Eye Res. 2000; 71:523-533). On day 0, male Brown Norway rats (200-300 g) were anesthetized with 100 mg/kg Ketamine and 10 mg/kg Xylazine, and pupils were dilated with 1% Tropicamide. Using the blue-green setting of a Coherent Novus Argon Laser, 3 laser burns (90 mW for 0.1 s; 100 μm diameter) were given to each eye between the retinal vessels around the optic nerve head. Rats were dosed with test compounds in their indicated vehicles orally once daily.
On day 10, rats were sacrificed with 100% CO2, and blood vessels were labeled by vascular perfusion with 10 mg/ml FITC-dextran (MW 2×10^6). Using an epifluorescence microscope (20×) coupled to a spot digital camera and a PC, images were obtained from the flat mounts of the RPE-choroid-sclera from each eye, and the area occupied by hyperfluorescent neovessels within each laser lesion was measured using ImagePro 4 software.
To determine the dose required for 50% inhibition (ID50), the percent inhibition data was plotted as a function of oral dose, using the ‘best-fit’ analysis within MicroSoft Excel software. The ID50 value was verified visually by using the plotted data (horizontal line from 50% y value, at intersection with best-fit line drop vertical line to x axis (dose)).

T1 sequence (P35968 786-1356 limits assumed): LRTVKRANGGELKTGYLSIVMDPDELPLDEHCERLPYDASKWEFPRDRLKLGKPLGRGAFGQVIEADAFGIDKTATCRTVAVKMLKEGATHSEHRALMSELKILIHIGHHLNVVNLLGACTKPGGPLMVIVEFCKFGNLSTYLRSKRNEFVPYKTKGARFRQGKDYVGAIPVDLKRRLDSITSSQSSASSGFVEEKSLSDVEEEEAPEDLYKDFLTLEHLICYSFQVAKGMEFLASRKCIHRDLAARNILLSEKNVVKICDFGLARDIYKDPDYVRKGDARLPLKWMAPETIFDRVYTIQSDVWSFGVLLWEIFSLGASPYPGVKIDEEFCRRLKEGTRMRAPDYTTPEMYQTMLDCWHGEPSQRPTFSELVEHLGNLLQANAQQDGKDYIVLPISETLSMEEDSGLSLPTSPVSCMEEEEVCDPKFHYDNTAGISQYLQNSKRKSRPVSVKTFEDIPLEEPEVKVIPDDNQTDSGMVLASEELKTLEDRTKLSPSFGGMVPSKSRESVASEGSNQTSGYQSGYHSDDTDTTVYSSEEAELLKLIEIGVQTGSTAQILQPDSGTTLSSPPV

Row | IC50 [1] [nM] | Compound | VEGF Stimulated Ca^++ signal assay % inhibition @ 10 μM [2] [%] | further results
1 | 480 | 4-(5-Chloro-2-oxo-1,2-dihydro-indol-3-ylidenemethyl)-6-indazolylamine [Example 103] | 96.59 | IC50 [2]: 1040 nM
2 |  | O=C1Nc2ccccc2C1=CNc1cccc(Br)c1 [Example 2] | −0.5 | 
3 |  | O=C1Nc2ccccc2C1=CNc1ccc(N2CCOCC2)cc1 [Example 40] |  | CNV Assay % inhibition (result in words) ([3]; 100 mg/kg (sid), PEG400, oral): toxic
4 |  | CC(O)c1ccc(NC=C2C(=O)Nc3ccc(Cl)cc32)cc1 (stereo not shown) [Example 72, 5-Chloro-3-{[4-(1-hydroxy-ethyl)-phenylamino]-methylene}-1,3-dihydro-indol-2-one] | 81.50 | IC50 [2]: 1560 nM
5 |  | O=C1Nc2ccccc2C1=CNc1ccc2c(c1)OCO2 [Example 80, 3-[(3,4-Methylenedioxyphenylamino)-methylene]-11,3-dihydro-indol-2-one] | 3.50 | 
6 |  | COc1ccc(NC=C2C(=O)Nc3ccc(Cl)cc32)cc1F [Example 105, 5-Chloro-3-[(3-fluoro-4-methoxyphenylamino)-methylene]-1,3-dihydro-indol-2-one] |  | inhibition at 10 µM ([2]; Homo sapiens): 17.5%
7 | 400 | Cc1cccc2c1C(=CNc1ccc(C(=O)O)c(O)c1)C(=O)N2 [Example 155, 2-Hydroxy-4-[(4-methyl-2-oxo-1,2-dihydro-indol-3-ylidenemethyl)-amino]-benzoic acid] |  | 
8 | 160 | CCN(CC)Cc1cc(NC=C2C(=O)Nc3cccc(C)c32)ccc1O [Example 161, 3-[(3-Diethylaminomethyl-4-hydroxy-phenylamino)-methylene]-4-methyl-1,3-dihydro-indol-2-one] |  | 
9 |  | CCN(CC)CCCOc1ccc(NC=C2C(=O)Nc3ccccc32)cc1 [Example 214, 3-{[4-(3-Diethylamino-propoxy)-phenylamino]-methylene}-1,3-dihydro-indol-2-one] |  | inhibition in vivo at 80 mg/kg ([3]; Rattus norvegicus, 240 h, 80 mg/kg (sid), corn oil, oral): 85%
10 | 380 | O=C1Nc2ccc(F)cc2C1=CNc1ccc(N2CCCCC2)cc1 [Example 221] |  | inhibition at 10 µM ([2]; Homo sapiens): 97.6%; IC50 ([2]; Homo sapiens): ≤ 1000 nM
11 |  | Cc1cccc2c1C(=CNc1ccc(NCCN3CCOCC3)cc1)C(=O)N2 [Example 242, 4-Methyl-3-{[4-(2-morpholin-4-yl-ethylamino)-phenylamino]-methylene}-1,3-dihydro-indol-2-one] | 95.82 | 
